Assay results: patent US20240172757A1, “METHOD OF […] A […] CROP” (priority 2021, published 2024)

Legend:
[1] = system: soybean plant crop; assay: Field test runs: acceleration of senescence/maturation and time to harvest of soybean crop after spraying at a reproductive growth stage; assay type: in vivo
Description: The solution of 2-chloroethylphosphonic acid may be prepared by mixing together 2-chloroethylphosphonic acid (known as ethephon in liquid form and obtainable from a number of sources) with a water solution or a liquid medium that is non-toxic to the particular legume desired. Most commercial sprayers are suitable for preparation and/or application of the solution described herein. To prepare the mixture, during test runs, a tank comprising a capacity of 600 gallons and an agitator was used. Continuous agitation of the mixture during preparation seems to provide best results.
In some embodiments, the 2-chloroethylphosphonic acid solution may comprise a water-soluble urea comprising approximately 46% nitrogen. A dry form of nitrogen may be part of the water solution or it may be part of the 2-chloroethylphosphonic acid solution with suitable mixing. Mixing is performed continuously in certain embodiments. During some test runs, approximately 4 pounds of urea per acre was added to about 10 gallons (83.4 pounds) of water per acre, followed by approximately 1.5 pounds of 2-chloroethylphosphonic acid per acre. In some embodiments, the 2-chloroethylphosphonic acid may also comprise a spreader-sticker. The spreader-sticker may be added, for example, at a rate of 2 ounces (0.125 pounds) per acre and may be silicone-based. A suitable silicone-based spreader-sticker, for example, is Kinetic by Helena. Other non-silicone-based sticker-spreaders may also be used.
Application of the 2-chloroethylphosphonic acid solution should be performed when the leguminous plant crop comprises at least 50% of the planted crops in the field at a seed growth stage. In some embodiments, the leguminous plant may be at an R5 growth stage when application of the solution described herein is performed. During R5, a fully developed seed pod may comprise, for example, a match-head sized seed in the pod. In some embodiments, the leguminous plant may be at growth stage R5.5, or between R5 and R6 for application. In some embodiments, application is performed when at least 50% of the planted leguminous plant crop is at an R6 reproductive growth stage, as described above. For example, R6 may be visually characterized or identified when at least 50% of the leguminous plant crop comprises at least one seed or “green bean” (in a top pod of the plant) comprising a width equal to its pod cavity. In some embodiments, the leguminous plant may be at growth stage R6.5, or at or between R6 and R7. During some test runs, senescence was achieved within 5 days after application of the solution described herein, with successful harvesting of quality crop. By way of example, prior to application, the physiological stage of the leguminous plant may be determined by inspecting the terminal (or last growing point at the top) end of the leguminous plant crop for a seed pod. Triggering maturation at the R5 growth stage may produce smaller seeds. For commercial production, triggering at R6 may be most successful to obtain more seed at a greater weight.
Application of the solution described herein may perform best at temperatures below 98° F. In some embodiments, application of the solution is performed at a temperature below about 90° F. Successful test runs, by way of example, described below were performed at 88° F.
During trial runs, soybean plant crops were planted on plot sizes ranging from 25-150 acres. Soybean plant crops were planted on soil used for rotational crops including, for example, grass crop, corn crop, or grain crop. Crops were seeded approximately 1-1.5 inches deep with a twin line planter. No other pretreatments were performed on the soil during test runs. Ground application was performed on raised beds using a flow jet capable of delivering a minimum of 10-20 gallons per acre. Raised beds were used during some test runs. Furrow irrigation was used to water the soybean plant crop, applying water to the top end of each furrow. […]

[2] = system: soybean plant crop; assay: Composition, yield and seed quality analysis of harvested soybeans after spraying at R6; assay type: in vivo
Procedure: During trial applications of the solutions described herein, composition, yield and seed quality was analyzed. It was discovered that even under challenges such as hotter than normal temperatures and drought conditions, the solutions described herein allow for manipulation of the seasons for advantageous harvesting of high quality soybeans. Soybean crop (variety “Linda,” a group 5.6 determinate soybean) was planted in 8-24 row strips following a fall corn crop. Herbicide was applied at 3 pints/acre and crop was fertilized with 20 gallons of 32-0-0 per acre, followed by irrigation as needed. Soil maps indicated two different soil types (Harlingen clay and Olmito clay) in the field that bisected the field, with the second replication having slightly less Olmito clay in the treated area. As they are both components of the other, the field was consistent to visual observation. […] The growth stage of the beans at this point is still very rapid but the dry weight and nutrient accumulation begins to slow in the whole plant by R6.5 which is just 7-10 days later in many cases. Another indicator of the R6 stage is visual signs of senescence in the older leaves of the plants.
Sprayer comprising the 2-chloroethylphosphonic acid solution was prepared and applied as described above at the following rates of Table. 1. Weather conditions at the time of spraying can be found in Table 2.
The sprayed crops were monitored daily to observe phenotypic changes which included leaf color, leaf drop, pod desiccation, and any visual between treatments. After two days post-spraying, photographs were taken to show the changes in color due to senescense taking place.
Harvest was slightly delayed (about 3 days) due to unavailability of the combine, however, even with this delay, harvested crops were sent for composition and seed quality parameters. The actual harvest during these test runs was well below a soybean moisture content of a market standard 13%.
The 0.75 pounds of the 2-chloroethylphosphonic acid solution per acre rate was highest in crude fat, crude protein, digestible energy and total digestible nutrients (TDN) while being lowest in crude fiber. […] FIGS. 1 through 4 illustrate major nutritional components affected by treatment rate, where the term “a.i.” is meant to refer to the 2-chloroethylphosphonic acid solution described above. FIG. 1 is a graph of crude protein affected by treatment rate of 2-chloroethylphosphonic acid solution according to an embodiment. FIG. 2 is a graph of crude fat affected by treatment rate of 2-chloroethylphosphonic acid solution according to an embodiment. FIG. 3 is a graph of crude fiber affected by treatment rate of 2-chloroethylphosphonic acid solution according to an embodiment. FIG. 4 is a graph of total digestible nutrients affected by treatment rate of 2-chloroethylphosphonic acid solution according to an embodiment.

SMILES: O=P(O)(O)CCCl [2-chloroethylphosphonic acid]
- acceleration of maturation in soybean plants ([1]; about 0.375 pounds per acre at the R-6 stage): significant acceleration of maturation
- accelerated maturation of a soybean plant ([1]; about 0.75 pounds per acre at the R-6 reproductive growth stage): Accelerated maturation
- harvesting stage reached sooner than without spraying ([1]; following application at a reproductive growth stage): 10 to 14 days
- maturation achieved faster than when not treated ([1]; in some cases, high temperature and high humidity environments): up to 40 days
- days shaved off waiting times ([1]; in some cases, versus typical minimum 39-day period): about 30 days
- time to senescence after application ([1]; some test runs): ≤ 5 days
- germination rate ([1]; trial runs, 25-150 acre plots): ≥ 90%
- total digestible nutrients (TDN) (rank among treatments) ([2]; 0.375 pounds per acre, R6): Ranked behind that in TDN
- crude fat (rank among treatments) ([2]; 0.75 pounds per acre, R6): highest
- crude fiber (rank among treatments) ([2]; 0.75 pounds per acre, R6): lowest
- crude protein (rank among treatments) ([2]; 0.75 pounds per acre, R6): highest
- digestible energy (rank among treatments) ([2]; 0.75 pounds per acre, R6): highest
- total digestible nutrients (TDN) (rank among treatments) ([2]; 0.75 pounds per acre, R6): highest
- overall nutrients versus untreated ([2]; all three treatments (0.375, 0.75, 1.125 pounds per acre)): improved overall nutrients
